# Test results from PubChem BioAssay AID2060899 (Molecular Pharmacology Branch, DTP, NCI, 2025).
# pIC50: −log10 of the molar value. Several values for one entry are separate records, joined by “and”; a condition that tells them apart may be missing. Identical values can stand only once.
# Test system: 565726-208-R1-J5-PDC complex spheroids, growth inhibition
# Assay: Anticancer human tumor 565726-208-R1-J5-PDC patient-derived pancreatic adenocarcinoma cell line growth inhibition [RAS]
# Conditions: for viability, T/C: stronger effect = lower value
# Summary of the method: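 Multi-cell-type spheroids: tumor cells plus HUVEC endothelial cells and mesenchymal stem cells. RAS-pathway inhibitors were combined with targeted agents, each dosed in half-log steps down from clinical Cmax, or from 10 microM when Cmax was unknown.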
# 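Note: spheroids exposed to compounds for seven days before readout.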
# 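Throughout, for viability, T/C: 100% = DMSO vehicle control viability.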
smiles,measurement,setting,value
CCc1c2c(nc3ccc(O)cc13)-c1cc3c(c(=O)n1C2)COC(=O)[C@]3(O)CC + C=CC(=O)N1CCN(c2nc(OCC3CCCN3C)nc3c(F)c(-c4nc(N)cc(C)c4C(F)(F)F)c(Cl)cc23)C(C)C1,pIC50,"curve of first compound, second compound 0.00316 µM",8.31
same,pIC50,"curve of first compound, second compound 0.01 µM",8.34
same,pIC50,"curve of first compound, second compound 0.0316 µM",8.24
same,pIC50,"curve of first compound, second compound 0.1 µM",8.26
same,pIC50,"curve of first compound, second compound 0.316 µM",8.40
same,pIC50,"curve of first compound, second compound 1 µM",8.29
same,"viability, T/C","second compound 0.00316 µM, first compound 0.000949 µM",88.2%
same,"viability, T/C","second compound 0.00316 µM, first compound 0.003 µM",61.3%
same,"viability, T/C","second compound 0.00316 µM, first compound 0.00949 µM",34.5%
same,"viability, T/C","second compound 0.00316 µM, first compound 0.03 µM",23.3%
same,"viability, T/C","second compound 0.00316 µM, first compound 0.0949 µM",15.2%
same,"viability, T/C","second compound 0.00316 µM, first compound 0.3 µM",7.24%
same,"viability, T/C","second compound 0.01 µM, first compound 0.000949 µM",98.5%
same,"viability, T/C","second compound 0.01 µM, first compound 0.003 µM",58.2%
same,"viability, T/C","second compound 0.01 µM, first compound 0.00949 µM",33.8%
same,"viability, T/C","second compound 0.01 µM, first compound 0.03 µM",24.9%
same,"viability, T/C","second compound 0.01 µM, first compound 0.0949 µM",14.3%
same,"viability, T/C","second compound 0.01 µM, first compound 0.3 µM",8.62%
same,"viability, T/C","second compound 0.0316 µM, first compound 0.000949 µM",121%
same,"viability, T/C","second compound 0.0316 µM, first compound 0.003 µM",68.4%
same,"viability, T/C","second compound 0.0316 µM, first compound 0.00949 µM",35.4%
same,"viability, T/C","second compound 0.0316 µM, first compound 0.03 µM",21.1%
same,"viability, T/C","second compound 0.0316 µM, first compound 0.0949 µM",13.2%
same,"viability, T/C","second compound 0.0316 µM, first compound 0.3 µM",8.94%
same,"viability, T/C","second compound 0.1 µM, first compound 0.000949 µM",134%
same,"viability, T/C","second compound 0.1 µM, first compound 0.003 µM",64.1%
same,"viability, T/C","second compound 0.1 µM, first compound 0.00949 µM",39.3%
same,"viability, T/C","second compound 0.1 µM, first compound 0.03 µM",18.2%
same,"viability, T/C","second compound 0.1 µM, first compound 0.0949 µM",15.1%
same,"viability, T/C","second compound 0.1 µM, first compound 0.3 µM",8.7%
same,"viability, T/C","second compound 0.316 µM, first compound 0.000949 µM",113%
same,"viability, T/C","second compound 0.316 µM, first compound 0.003 µM",53%
same,"viability, T/C","second compound 0.316 µM, first compound 0.00949 µM",33.1%
same,"viability, T/C","second compound 0.316 µM, first compound 0.03 µM",21.1%
same,"viability, T/C","second compound 0.316 µM, first compound 0.0949 µM",13.3%
same,"viability, T/C","second compound 0.316 µM, first compound 0.3 µM",8.96%
same,"viability, T/C","second compound 1 µM, first compound 0.000949 µM",130%
same,"viability, T/C","second compound 1 µM, first compound 0.003 µM",59.1%
same,"viability, T/C","second compound 1 µM, first compound 0.00949 µM",35%
same,"viability, T/C","second compound 1 µM, first compound 0.03 µM",32.9%
same,"viability, T/C","second compound 1 µM, first compound 0.0949 µM",18.6%
same,"viability, T/C","second compound 1 µM, first compound 0.3 µM",11.7%
CC(Nc1ccc2c(c1)OCCn1cc(N3C(=O)OCC3C(F)F)nc1-2)C(N)=O (stereo unspecified),"viability, T/C",compound 0.0316 µM,94.9% [middle of 4 runs]
same,"viability, T/C",compound 0.316 µM,79.3% [middle of 4 runs]
same,"viability, T/C",compound 1 µM,72% [middle of 4 runs]
same,pIC50,curve of compound,< 5.00 and 5.00
